The source of these data is patent US20250034134A1, “15-PGDH INHIBITOR AND USE THEREOF” (Wuhan Humanwell Innovative Drug Research and Development …, priority 2021, published 2025).

One series concerns A549 cells. The series can be described thus: Effect of compounds on PGE2 levels in A549 cell supernatant. The series is classed as cell-based. The conditions noted are these: 20 nM compound, about 12 hours, after IL-10 stimulation; ELISA. The protocol:
A549 cells (Procell, Wuhan) were cultured in F12K+10% FBS. The cells with good status in log phase were selected for the experiment, digested, counted, and inoculated into a 24-well plate at 8000 cells per well. The cells were cultured in a 37° C., 5% CO2 incubator overnight. After adherence, the cells were transferred to a culture medium containing 0.5% FBS and cultured for about 10 hours. IL-10 was added to each well (final concentration of 20 ng/mL, 1 mL per well), and a control group (without IL-10) was set up. After stimulation with IL-10 for about 24 hours, the cell culture medium of each well was aspirated and discarded, and the wells were gently washed with fresh culture medium containing 0.5% FBS. 400 μL of culture medium containing the compound of different concentrations (20 nM and 2500 nM) was added to each well and cultured for about 12 hours. The supernatant was collected and PGE2 was detected using ELISA kit (R&D Systems, Cat. No.: KGE004B).
Background: An ELISA detects its analyte on a solid surface through an enzyme-linked reagent.

The target in a further series is 15-PGDH (Homo sapiens (Human), UniProt P15428). The series can be described thus: Inhibition test of compounds on 15-PGDH enzyme. The series is classed as biochemical. The protocol:
15-PGDH (R&D Systems, Cat. No.: 5660-DH-010) was prepared to twice the final concentration, i.e., 30 nM, using Assay Buffer (50 mM Tris-HCl, pH 7.5, 0.01vol % Tween 20). The obtained mixture was then added to a 384-well white plate (Cisbio Bioassays, Cat. No. 66PL384025) at 8 μL/well. Negative control wells (with Assay Buffer only and without enzyme) were set. The compound was then prepared to 4 times the final concentration using Assay Buffer, i.e., diluted 3-fold to 10 concentrations starting from 4000 nM. The obtained mixture was added to the above white plate at 4 μL/well, mixed well, centrifuged at 1000 rpm for 1 minute, and incubated at 25° C. for 10 minutes. Both positive control wells (with 15-PGDH only) and negative control wells (without 15-PGDH) were set. A mixture of NAD^+(Select, Cat. No. S2518) and PGE2 (R&D Systems, Cat. No.: 2296/10) was then prepared using Assay Buffer. NAD^+ and PGE2 were prepared to four times their final concentrations, i.e., 2 mM and 0.12 mM, respectively, using Assay Buffer. The obtained mixture was then added to the above white plate at 4 μL/well, mixed well, centrifuged at 1000 rpm for 1 minute, and incubated at 25° C. for 30 minutes for the reaction. The fluorescence was detected at an excitation wavelength of 340 nm and an emission wavelength of 485 nm using instrument TECAN SPARK 20M. The IC50 value was calculated using four-parameter fitting with GraphPad Prism 8.0.

A further series is described as follows: Pharmacokinetics in mice. The conditions noted are these: mouse, po; male CD-1 mice, 10 mg/kg, gavage, plasma. The series is classed as in vivo. The protocol: The pharmacokinetic properties of the compounds of the present disclosure in mice were determined with reference to the following experimental methods.
Three male CD-1 mice were used, administered at a dose of 10 mg/kg, the route of administration was by gavage, and the vehicle was 5% DMSO+10% Solutol+85% Saline. The mice were fasted overnight, and the time points of blood collection were before administration and at 15 minutes, 30 minutes, 1 hour, 2 hours, 4 hours, 8 hours, and 24 hours after administration. Blood samples were centrifuged at 6800 g for 6 minutes at 2 to 8° C., and plasma was collected and stored at −80° C. 10 μL of plasma at each time point was taken, and added with 200 μL of methanol containing 100 ng/mL internal standard. The mixture was vortexed, mixed evenly, and then centrifuged at 18000 g for 7 minutes at 2 to 8° C. 200 μL of the mixture was transferred to a 96-well injection plate for LC-MS/MS quantitative analysis. The main pharmacokinetic parameters were analyzed using WinNonlin 7.0 software with non-compartmental model.

Another series has as its system IBD in mice. Briefly: Efficacy on IBD in mice. The series is classed as in vivo, mouse. The conditions noted are these: for DAI / body weight / inflammatory cell infiltration score of colon tissues / tissue injury score of colon tissues: vs G2 model group; for Colon weight CW (g): day 0 to day 9, DSS mice. As for the experimental part: The mice in G2 to G6 were given 2% DSS aqueous solution on day 0 to day 6, normal water on […], vehicle/positive/test substance on day 0 to day 9, and euthanized on day 10 for necropsy. Colon weight (CW) and colon length (CL) were measured and colon tissues […] were subjected to histopathological examination.

Molecules are shown by their SMILES.

Sequence of 15-PGDH (P15428 whole entry): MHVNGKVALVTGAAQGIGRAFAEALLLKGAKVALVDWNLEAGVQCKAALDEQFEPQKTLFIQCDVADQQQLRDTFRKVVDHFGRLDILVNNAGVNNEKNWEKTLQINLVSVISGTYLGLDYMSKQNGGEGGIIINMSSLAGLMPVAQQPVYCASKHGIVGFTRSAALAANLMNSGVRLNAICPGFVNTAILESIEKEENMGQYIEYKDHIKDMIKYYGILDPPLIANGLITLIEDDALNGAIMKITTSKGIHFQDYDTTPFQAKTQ

Regarding `Cn1nc2cc(N3CC4CC4c4cc(C(=O)N5CCC6(CC5)CC6)cnc43)ccn2c1=O` (stereo not shown) [Compound I-28, 7-(6-(6-azaspiro[2.5]octane-6-carbonyl)-1,1a,2,7b-tetrahydro-3H-cyclopropa[c][1,8]naphthyridin-3-yl)-2-methyl-[1,2,4]triazolo[4,3-a]pyridin-3(2H)-one], the “Fold increase of PGE2 in A549 cell supernatant” value (“Fold increase of PGE2” for short) in the series with A549 cells worked out at 4.05. The compound further gave an IC50 against 15-PGDH of 1.71 nM. Further, in the series “Pharmacokinetics in mice”, the AUC(0-t) is 10700 ng·h/mL and the concentration peaked (Cmax) at 5040 ng/mL.

In the case of `Cn1nc2cc(N3CC4CC4c4cc(C(=O)N5CCC(F)(F)CC5)cnc43)ccn2c1=O` (single isomer, unassigned) [Compound I-3B], in the series with IBD in mice (G4, 2.5 mg/kg bid), the DAI result is listed as “significant decrease”, the body weight result is given as “increase”, the “inflammatory cell infiltration score of colon tissues” value is “significant decrease” and the “tissue injury score of colon tissues” value was “significant decrease”. For the same compound, the “Colon weight CW (g)” value with IBD in mice (G4 low-dose, 2.5 mg/kg bid) was “significant decrease”. In the series with IBD in mice (G5, 5 mg/kg bid), the DAI entry is listed as “significant decrease”, the body weight entry was “significant increase”, the “inflammatory cell infiltration score of colon tissues” value is recorded as “significant decrease” and the “tissue injury score of colon tissues” value is given as “significant decrease”. In addition, the “Colon weight CW (g)” value with IBD in mice (G5 high-dose, 5 mg/kg bid) was “significant decrease”.

On to `Cn1ccc2cc(N3CC4CC4c4cc(C(=O)N5CCC(F)(F)CC5)cnc43)ccc2c1=O` (stereo not shown) [Compound I-12, 6-(6-(4,4-difluoropiperidine-1-carbonyl)-1,1a,2,7b-tetrahydro-3H-cyclopropa[c][1,8]naphthyridin-3-yl)-2-methylisoquinolin-1(2H)-one], for which the “Fold increase of PGE2” value in the series on A549 cells is 5.44. 2.1 nM corresponded to half-maximal inhibition against 15-PGDH (IC50). For the same compound, in “Pharmacokinetics in mice”, the AUC(0-t) amounted to 107000 ng·h/mL and the Cmax was 14800 ng/mL.

Take `O=C(c1cnc2c(c1)C1CC1CN2c1ccn2ncnc2c1)N1CCC(F)(F)CC1` (stereo not shown) [Compound I-16, (3-([1,2,4]triazolo[1,5-a]pyridin-7-yl)-1a,2,3,7b-tetrahydro-1H-cyclopropa[c][1,8]naphthyridin-6-yl)(4,4-difluoropiperidin-1-yl)methanone]: the “Fold increase of PGE2” value with A549 cells amounted to 3.7. For the same compound, half-maximal inhibition against 15-PGDH (IC50) required 5.4 nM.

In the case of `CN1Cc2cc(N3CC4CC4c4cc(C(=O)N5CCC(F)(F)CC5)cnc43)ccc2C1=O` (stereo not shown) [Compound I-1, 5-(6-(4,4-difluoropiperidine-1-carbonyl)-1,1a,2,7b-tetrahydro-3H-cyclopropa[c][1,8]naphthyridin-3-yl)-2-methylisoindolin-1-one], the “Fold increase of PGE2” value with A549 cells is given as 4.3. At 15-PGDH, this compound registered an IC50 of 4.3 nM.

Regarding `CN1C(=O)c2ncc(N3CC4CC4c4cc(C(=O)N5CCC(F)(F)CC5)cnc43)cc2C12CC2` (stereo not shown) [Compound I-19, 3′-(6-(4,4-difluoropiperidine-1-carbonyl)-1,1a,2,7b-tetrahydro-3H-cyclopropa[c][1,8]naphthyridin-3-yl)-6′-methylspiro[cyclopropane-1,5′-pyrrolo[3,4-b]pyridin]-7′(6′H)-one], in the series with A549 cells, the “Fold increase of PGE2” value was 4.72. The compound further came in with an IC50 at 15-PGDH of 3.72 nM.

`Cn1nc2cc(N3CC4CC4c4cc(C(=O)N5CCC[C@@H](CF)C5)cnc43)ccn2c1=O` (stereo partly drawn) [Compound I-30, 7-(6-((R)-3-(fluoromethyl)piperidine-1-carbonyl)-1,1a,2,7b-tetrahydro-3H-cyclopropa[c][1,8]naphthyridin-3-yl)-2-methyl-[1,2,4]triazolo[4,3-a]pyridin-3(2H)-one]: the “Fold increase of PGE2” value in the series with A549 cells was 2.72. For the same compound, the IC50 against 15-PGDH came out at 6 nM.

With `Cn1ncc2cc(N3CC4CC4c4cc(C(=O)N5CCC(F)(F)CC5)ccc43)cnc2c1=O` (stereo not shown) [Compound I-14, 3-(6-(4,4-difluoropiperidine-1-carbonyl)-1,1a,2,7b-tetrahydro-3H-cyclopropa[c]quinolin-3-yl)-7-methylpyrido[2,3-d]pyridazin-8(7H)-one], the “Fold increase of PGE2” value in the series on A549 cells amounted to 2.3. At 15-PGDH, this compound returned an IC50 of 8.6 nM.

Usually IC50 stands for the concentration at which inhibition is half-maximal. High values mean lower potency, low ones higher potency. One may read the AUC(0-t) as exposure summed from dosing to a finite time, without extrapolation to infinity. A high value points to more exposure. The term Cmax denotes the highest concentration seen after dosing.
